Assay results: patent US6693125B2 (CombinatoRx Incorporated, priority 2001, dated 2004)

Assays:
[1] = system: nocodozole-resistant NocR and Podrii6 cell lines; details: Gupta, Mol. Pharmacol. 30:142-148, 1986; cited from earlier work
[2] = system: A549 lung adenocarcinoma cells; experiment: A549 bromodeoxyuridine (BrdU) cytoblot antiproliferative assay of compound dilution matrix; format: cell-based
Experimental: An 8× stock solution (128 μM) of each individual compound was made in Dulbecco's Modified Eagle Medium (DMEM) (Gibco 11995-040) containing 10% fetal bovine serum (FBS), […] L-glutamine, and 1% antibiotic/antimycotic solution. From this a 2-fold dilution series was made in DMEM. […] This compound mixture plate provided 4× concentrations of each compound that are transferred to assay plates.
The compound dilution matrix was assayed using the A549 bromodeoxyuri dine (BrdU) cytoblot method. […] Fifteen microliters of the 4× compound mixture matrix was added to each well of the plate containing the cells. The compound mixture matrix was transferred using a 16-channel pipettor (Finnpipette). In addition, control wells with paclitaxel (final concentration 4.6 μM), podophyllotoxin (9.6 μM), and quinacrine (8.5 μM) were added to each plate. Each experiment was conducted in triplicate plates.
After incubation for 48 hours at 37° C., BrdU was added to each well at a concentration of 10 μM. After 16 hours, the media was aspirated and the cells were fixed by the addition of 70% ethanol and phosphate-buffered saline (PBS) at room temperature for 1 hour. The fixative was aspirated and 2N HCl with Tween 20 (polyoxyethylene sorbitan monolaurate) was added to each well and the plates were incubated for 20 minutes at room temperature. The HCl was neutralized with a solution of 2N NaOH and the cells were washed twice with Hank's Balanced Salt Solution (HBSS) and once with PBS containing 0.5% bovine serum albumin (BSA) and 0.1% Tween 20. The wash solution was removed and mouse anti-BrdU primary antibody (PharMingen #555627) was diluted 1:1000 in PBS containing BSA, Tween 20, and secondary antibody at a dilution of 1:2000 (Amersham #NA931). The secondary antibody recognizes the mouse antibody and is conjugated to the enzyme horseradish peroxidase (HRP). After one hour of incubation, the antibody solution was removed and the cells washed once with PBS. After the PBS wash, the HRP substrate (which contains luminol, hydrogen peroxide, and an enhancer such as para-iodophenol) was added to each well. The plates were read using an LJL Analyst. All aspirations as well as the washes with PBS and HBSS were performed using a TECAN™ Power Washer 384. The amount of light output from each well indicates the amount of DNA synthesis that occurred in that well. Decreased light indicates antiproliferative action of the compounds.
Antiproliferative ratios were also calculated for paclitaxel, podophyllotoxin, and quinacrine and used for comparison.
The assays were performed as described in Example 2, above.

[3] = mice, single intraperitoneal injection 10 mg/kg; cited from earlier work
[4] = cited from earlier work
[5] = Homo sapiens, A549, read-out: inhibition of growth

For `c1ccc2[nH]c(-c3cscn3)nc2c1` [Thiabendazole, thiabendazole], the “cross-resistance of nocodozole-resistant cell lines” value [1] is given as “lack of cross-resistance”, the antiproliferative ratio ([2]; thiabendazole 0.25 μM + pentamidine isethionate 0 μM) is given as 1.2 and the antiproliferative ratio ([2]; thiabendazole 0.5 μM + pentamidine isethionate 0 μM) is given as 1.2. It also gave an antiproliferative ratio ([2]; thiabendazole 1 μM + pentamidine isethionate 0 μM) of 1.2, an antiproliferative ratio ([2]; thiabendazole 2 μM + pentamidine isethionate 0 μM) of 1.2 and an antiproliferative ratio ([2]; thiabendazole 4 μM + pentamidine isethionate 0 μM) of 1.2.

With `CCCOc1ccc2nc(NC(=O)OC)[nH]c2c1` [Oxibendazole, oxibendazole] the antiproliferative ratio ([2]; oxibendazole 0.015 μM + pentamidine isethionate 0 μM) was 1.0, the antiproliferative ratio ([2]; oxibendazole 0.03 μM + pentamidine isethionate 0 μM) was 1.1 and the antiproliferative ratio ([2]; oxibendazole 0.06 μM + pentamidine isethionate 0 μM) was 1.0. It also gave an antiproliferative ratio ([2]; oxibendazole 0.13 μM + pentamidine isethionate 0 μM) of 1.1, an antiproliferative ratio ([2]; oxibendazole 0.25 μM + pentamidine isethionate 0 μM) of 1.0 and an antiproliferative ratio ([2]; oxibendazole 0.5 μM + pentamidine isethionate 0 μM) of 1.6. For the same compound, the antiproliferative ratio ([2]; oxibendazole 1 μM + pentamidine isethionate 0 μM) was 2.9, the antiproliferative ratio ([2]; oxibendazole 2 μM + pentamidine isethionate 0 μM) was 3.2 and the antiproliferative ratio ([2]; oxibendazole 4 μM + pentamidine isethionate 0 μM) was 3.6.

In the case of `CCCSc1ccc2[nH]c(NC(=O)OC)nc2c1` [Albendazole, albendazole], the antiproliferative ratio ([2]; albendazole 0.03 μM + pentamidine isethionate 0 μM) is reported as 1.3, the antiproliferative ratio ([2]; albendazole 0.06 μM + pentamidine isethionate 0 μM) is reported as 0.9 and the antiproliferative ratio ([2]; albendazole 0.13 μM + pentamidine isethionate 0 μM) is reported as 1.2. For the same compound, the antiproliferative ratio ([2]; albendazole 0.25 μM + pentamidine isethionate 0 μM) was 1.3, the antiproliferative ratio ([2]; albendazole 0.5 μM + pentamidine isethionate 0 μM) was 1.2 and the antiproliferative ratio ([2]; albendazole 1 μM + pentamidine isethionate 0 μM) was 1.4. For the same compound, the antiproliferative ratio ([2]; albendazole 2 μM + pentamidine isethionate 0 μM) was 2.5, the antiproliferative ratio ([2]; albendazole 4 μM + pentamidine isethionate 0 μM) was 2.4 and the antiproliferative ratio ([2]; albendazole 4 μM + pentamidine isethionate 0 μM, listed as albendazole) was “increased no further”. It also gave an antiproliferative ratio ([2]; albendazole 8 μM + pentamidine isethionate 0 μM) of 3.1 and an inhibition of growth ([2]; albendazole alone, two micromolar) of 60%.

For `COC(=O)Nc1nc2ccc(C(=O)c3ccccc3)cc2[nH]1` [Mebendazole, mebendazole], the antiproliferative ratio ([2]; mebendazole 0.015 μM + pentamidine isethionate 0 μM) was 1.0, the antiproliferative ratio ([2]; mebendazole 0.03 μM + pentamidine isethionate 0 μM) was 1.4 and the antiproliferative ratio ([2]; mebendazole 0.06 μM + pentamidine isethionate 0 μM) was 1.0. The antiproliferative ratio ([2]; mebendazole 0.13 μM + pentamidine isethionate 0 μM) was 1.5, the antiproliferative ratio ([2]; mebendazole 0.25 μM + pentamidine isethionate 0 μM) was 1.5 and the antiproliferative ratio ([2]; mebendazole 0.5 μM + pentamidine isethionate 0 μM) was 2.8. For the same compound, the antiproliferative ratio ([2]; mebendazole 1 μM + pentamidine isethionate 0 μM) was 3.4, the antiproliferative ratio ([2]; mebendazole 2 μM + pentamidine isethionate 0 μM) was 5.0 and the antiproliferative ratio ([2]; mebendazole 4 μM + pentamidine isethionate 0 μM) was 4.4.

With `CCC[S+]([O-])c1ccc2[nH]c(NC(=O)OC)nc2c1` (stereo not shown) [Albendazole Sulfoxide, albendazole sulfoxide] the antiproliferative ratio ([2]; albendazole sulfoxide 0.5 μM + pentamidine isethionate 0 μM) was 1.2, the antiproliferative ratio ([2]; albendazole sulfoxide 1 μM + pentamidine isethionate 0 μM) was 1.1 and the antiproliferative ratio ([2]; albendazole sulfoxide 2 μM + pentamidine isethionate 0 μM) was 1.2. For the same compound, the antiproliferative ratio ([2]; albendazole sulfoxide 4 μM + pentamidine isethionate 0 μM) was 1.4 and the antiproliferative ratio ([2]; albendazole sulfoxide 8 μM + pentamidine isethionate 0 μM) was 1.4.

In the case of `N=C(N)c1ccc(OCCCCCOc2ccc(C(=N)N)cc2)cc1` [pentamidine], the “tissue distribution (concentration ranking)” value [3] is listed as “The concentration in the kidneys was the highest, followed by that in the liver”.

Work on `CC(=O)O[C@H]1C(=O)[C@@]2(C)[C@H]([C@H](OC(=O)c3ccccc3)[C@]3(O)C[C@H](OC(=O)[C@H](O)[C@@H](NC(=O)c4ccccc4)c4ccccc4)C(C)=C1C3(C)C)[C@]1(OC(C)=O)CO[C@@H]1C[C@@H]2O` [paclitaxel] yielded an antiproliferative ratio ([2]; control wells, paclitaxel final concentration 4.6 μM) of 4.0.

In the case of `N=C(N)c1ccc(OCCCCCOc2ccc(C(=N)N)cc2)cc1` [Pentamidine Isethionate, 4,4′-diamidino-diphenoxypentane di(β-hydroxyethanesulfonate)], the “solubility in ether, acetone, and chloroform” value [4] is given as “insoluble”, the “solubility in water and glycerin” value [4] is given as “soluble” and the inhibition at 2 µM [2, 5] is given as 47%. The inhibition at 4 µM [2, 5] was 55%.
